The values that follow are results of earlier work, collected in patent US20060258708A1, “Method for treating Parkinson's disease and other neurological diseases” (priority 2005, published 2006).

For series [1] the following is noted: humans.
The conditions of series [2]: racemic thalidomide, animals.
The test system of series [3] is tumor necrosis factor alpha production by stimulated monocytes.

With `O=C1CCC(N2C(=O)c3ccccc3C2=O)C(=O)N1` (racemic) [Thalidomide, N-phthalidoglutarimide], in series [1] (100 to 200 mg ingested), the maximal blood concentration was 0.9 to 1.5 mg/L and the “time at which maximal blood concentration is attained” value was 4 to 6 h. Moreover, the oral absorption entry in series [1] (orally administered) is reported as “poorly absorbed”. Also, the “toxicity in a series of animal studies” value in series [2] was “has not been toxic”. Besides, the “effect on tumor necrosis factor alpha production” value in series [3] is reported as “inhibit”.
